US11478426B2, “Abuse deterrent immediate release capsule dosage forms” (SpecGX LLC, priority 2018, dated 2022)

System: Slug species
Assay: Slug irritation test (mucus production as model of nasal irritation)
Format: in vivo
Conditions: 15 min exposure, mean ± SEM (n)
Protocol: The organic acid of the capsule contents was tested for potential nasal irritation using a slug irritation model.

| Molecule | Mucus Production (% of Body Weight) (dose 0.3 mg) | Mucus Production (% of Body Weight) (dose 1.0 mg) | Mucus Production (% of Body Weight) (dose 3.0 mg) | Mucus Production (% of Body Weight) (dose 5.0 mg) | Mucus Production (% of Body Weight) (dose 10 mg) | Mucus Production (% of Body Weight) (dose 15 mg) | Mucus Production (% of Body Weight) (dose 20 mg) | Mucus Production (% of Body Weight) (dose 1%) |
| --- | --- | --- | --- | --- | --- | --- | --- | --- |
| CCCCCCCCCCCCOS(=O)(=O)[O-].[Na+] [Sodium Lauryl Sulfate] | 5.9 ± 2.0 (6) % of Body Weight | 9.5 ± 2.1 (9) % of Body Weight | 13.4 ± 2.6 (3) % of Body Weight | 9.8 ± 2.1 (6) % of Body Weight | 16.6 ± 0.9 (3) % of Body Weight | 22.7 ± 4.5 (3) % of Body Weight | 26.2 ± 3.8 (3) % of Body Weight | – |
| O=C(O)C(O)C(O)C(=O)O (stereo not shown) [Tartaric Acid] | – | – | 2.8 ± 2.4 (3) % of Body Weight | 7.2 ± 0.7 (6) % of Body Weight | 10.0 ± 1.3 (3) % of Body Weight | 33.6 ± 1.1 (6) % of Body Weight | 24.6 ± 2.8 (3) % of Body Weight | – |
| Benzalkonium Chloride [Benzalkonium Chloride (BAC)] | – | – | – | – | – | – | – | 24.7 ± 2.1 (3) % of Body Weight |
